Patent publication US9295714B2, “Apparatus and method for transdermal delivery of parathyroid hormone agents” (Alza Corporation, priority 2004, dated 2016)

What was measured:
[1] = Pharmacokinetics of hPTH (1-34) after IV, SC and coated microprojection array administration; format: in vivo, hairless guinea pig; conditions: for dose absorbed/delivered: AUC relative to IV
[2] = Plasma PTH after subcutaneous Forteo vs coated microprojection transdermal delivery; format: in vivo, human
Procedure: (§1) In this example, transdermal delivery of a PTH-based agent using a coated microprojection member was compared to conventional, subcutaneous delivery of teriparatide PTH (Forteo™). A dose-finding study was conducted with […], young females that received two treatments, separated by at least five days, according to randomly assigned sequence of 20 μg subcutaneous delivery of Forteo™ and 30 μg transdermal delivery of a PTH-based agent by coated microprojection. Bioavailability of transdermally delivered PTH was determined in 20 healthy, young females by administering two treatments, separated by at least five day, according to randomly assigned sequence of 40 μg subcutaneous delivery of Forteo™ and 30 μg transdermal delivery of a PTH-based agent by coated microprojection.
In the dose-finding study, two participants dropped out, eleven subjects participated and eight generated usable data. It was determined that three subjects had measurable PTH plasma levels following subcutaneous injection and eight subjects had measurable PTH plasma levels following transdermal delivery.

urinary cAMP = assay: Urinary cAMP excretion after subcutaneous vs transdermal delivery; format: in vivo, human
Procedure: as §1
FIG. 12 further reflects a preferred pulsatile concentration profile of the PTH agent, i.e., rapid on-set and rapid off-set after reaching Cmax.

Solubility in water = format: physicochemical; conditions: at pH 5
Excerpt: Referring now to FIG. 10, there is shown a superposition of the mole ratios for acetic acid and the neutral form of hPTH (1-34). […] At pH 5, negligible amounts of PTH are present as PTH zero net charge (PTH 0). The PTH is also highly soluble in water at concentrations in excess of 20%. During drying and subsequent storage, the free acetic acid will evaporate inherently resulting in formation of the water insoluble PTH 0. Subsequent reconstitution in water will not allow total solubilization of PTH. Accordingly, the use of a low volatility counterion provides a solid soluble formulation of PTH as long as the pH is maintained at least 2.5 pH units, preferably 3 pH units, below the pI of PTH. Preferably, this can be achieved by providing at least about two low volatility counterions to each molecule of PTH.

## CC[C@H](C)[C@H](NC(=O)[C@H](CCC(=O)O)NC(=O)[C@H](CO)NC(=O)[C@@H](NC(=O)[C@@H](N)CO)C(C)C)C(=O)N[C@@H](CCC(N)=O)C(=O)N[C@@H](CC(C)C)C(=O)N[C@@H](CCSC)C(=O)N[C@@H](Cc1cnc[nH]1)C(=O)N[C@@H](CC(N)=O)C(=O)N[C@@H](CC(C)C)C(=O)NCC(=O)N[C@@H](CCCCN)C(=O)N[C@@H](Cc1cnc[nH]1)C(=O)N[C@@H](CC(C)C)C(=O)N[C@@H](CC(N)=O)C(=O)N[C@@H](CO)C(=O)N[C@@H](CCSC)C(=O)N[C@@H](CCC(=O)O)C(=O)N[C@@H](CCCN=C(N)N)C(=O)N[C@H](C(=O)N[C@@H](CCC(=O)O)C(=O)N[C@@H](Cc1c[nH]c2ccccc12)C(=O)N[C@@H](CC(C)C)C(=O)N[C@@H](CCCN=C(N)N)C(=O)N[C@@H](CCCCN)C(=O)N[C@@H](CCCCN)C(=O)N[C@@H](CC(C)C)C(=O)N[C@@H](CCC(N)=O)C(=O)N[C@@H](CC(=O)O)C(=O)N[C@H](C(=O)N[C@@H](Cc1cnc[nH]1)C(=O)N[C@@H](CC(N)=O)C(=O)N[C@@H](Cc1ccccc1)C(=O)O)C(C)C)C(C)C [hPTH (1-34)]
[1]; IV, 22.5 μg, hairless guinea pig
  Fraction dose absorbed/delivered (%): 100%
[1]; SC, 19.5 μg
  dose absorbed/delivered: 8.2 ± 2.9 µg
[1]; microprojection array, 40.0 μg
  dose absorbed/delivered: 6.6 ± 1.8 µg
[2]; bioavailability study, subcutaneous delivery (Forteo 40 μg), 20 subjects completed
  subjects with measurable PTH plasma levels: 15 subjects
[2]; bioavailability study, transdermal delivery 30 μg, 20 subjects completed
  subjects with measurable PTH plasma levels: 20 subjects
[2]; dose-finding study, subcutaneous injection (Forteo 20 μg), eight with usable data
  subjects with measurable PTH plasma levels: three
[2]; dose-finding study, transdermal delivery 30 μg, eight with usable data
  subjects with measurable PTH plasma levels: eight
Urinary cAMP
  biological activity as evidenced by urinary cAMP excretion: comparable to that following subcutaneous delivery
Solubility in water
  solubility in water (concentration): > 20%
